Data from patent publication US20260262643A1, “HERBICIDAL BENZOXAZINES” (FMC CORPORATION, priority 2022, published 2026).

How the values were obtained:
[1] = system: ryegrass, Italian; test: Test C postemergence; assay type: in vivo, Lolium multiflorum; conditions: 10 days, 0 to 100 scale (0 no effect, 100 complete control)
Method in brief: (§1)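 Soil-applied (pre) and foliar (post, 1–2 leaf, 2–10 cm) sprays; surfactant-containing non-phytotoxic solvent vehicle; loam/sand substrate. Readout: visual % control at 10 d, greenhouse, versus untreated.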

[2] = system: wheat; test: Test C preemergence; assay type: in vivo, Triticum aestivum
Method in brief: as §1

[3] = system: soybean; test: Test C preemergence; assay type: in vivo, Glycine max
Method in brief: as §1

[4] = system: green foxtail; test: Test C postemergence; assay type: in vivo, Setaria viridis; conditions: 10 days, 0 to 100 scale (0 no effect, 100 complete control)
Method in brief: as §1

[5] = system: oat, wild; test: Test C preemergence; assay type: in vivo, Avena fatua
Method in brief: as §1

[6] = system: pigweed, palmer; test: Test C postemergence; assay type: in vivo, Amaranthus palmeri; conditions: 10 days, 0 to 100 scale (0 no effect, 100 complete control)
Method in brief: as §1

[7] = system: sedge, umbrella; test: Test D flooded paddy test; assay type: in vivo, Cyperus difformis; conditions: 250 g ai/ha, applied to paddy water, visual rating after 13 to 14 days, scale 0 to 100 (0 no effect, 100 complete control)
Method in brief: (§2)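 Visual ratings from 0, meaning no effect, to 100, meaning complete control, were assigned against untreated controls 13 to 14 days after compounds were added to the floodwater of pots kept 3 cm deep, with plants at the 2-leaf stage.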

[8] = system: oat, wild; test: Test C postemergence; assay type: in vivo, Avena fatua; conditions: 10 days, 0 to 100 scale (0 no effect, 100 complete control)
Method in brief: as §1

[9] = system: ryegrass, Italian; test: Test C preemergence; assay type: in vivo, Lolium multiflorum
Method in brief: as §1

[10] = system: barnyardgrass; test: Test D flooded paddy test; assay type: in vivo, Echinochloa crus-galli; conditions: 250 g ai/ha, applied to paddy water, visual rating after 13 to 14 days, scale 0 to 100 (0 no effect, 100 complete control)
Method in brief: as §2

[11] = system: barnyardgrass; test: Test C preemergence; assay type: in vivo, Echinochloa crusgalli
Method in brief: as §1

[12] = system: pigweed, palmer; test: Test C preemergence; assay type: in vivo, Amaranthus palmeri
Method in brief: as §1

[13] = system: barnyardgrass; test: Test C postemergence; assay type: in vivo, Echinochloa crusgalli; conditions: 10 days, 0 to 100 scale (0 no effect, 100 complete control)
Method in brief: as §1

[14] = system: kochia; test: Test C postemergence; assay type: in vivo, Bassia scoparia; conditions: 10 days, 0 to 100 scale (0 no effect, 100 complete control)
Method in brief: as §1

[15] = system: ragweed; test: Test C preemergence; assay type: in vivo, Ambrosia artemisiifolia
Method in brief: as §1

[16] = system: galium; test: Test C postemergence; assay type: in vivo, Galium aparine; conditions: 10 days, 0 to 100 scale (0 no effect, 100 complete control)
Method in brief: as §1

[17] = system: horseweed; test: Test C postemergence; assay type: in vivo, Erigeron canadensis; conditions: 10 days, 0 to 100 scale (0 no effect, 100 complete control)
Method in brief: as §1

[18] = system: kochia; test: Test C preemergence; assay type: in vivo, Bassia scoparia
Method in brief: as §1

[19] = system: corn; test: Test C preemergence; assay type: in vivo, Zea mays
Method in brief: as §1

[20] = system: wheat; test: Test C postemergence; assay type: in vivo, Triticum aestivum; conditions: 10 days, 0 to 100 scale (0 no effect, 100 complete control)
Method in brief: as §1

[21] = system: rice; test: Test D flooded paddy test; assay type: in vivo, Oryza sativa; conditions: 250 g ai/ha, applied to paddy water, visual rating after 13 to 14 days, scale 0 to 100 (0 no effect, 100 complete control)
Method in brief: as §2

[22] = system: corn; test: Test C postemergence; assay type: in vivo, Zea mays; conditions: 10 days, 0 to 100 scale (0 no effect, 100 complete control)
Method in brief: as §1

[23] = system: blackgrass; test: Test C postemergence; assay type: in vivo, Alopecurus myosuroides; conditions: 10 days, 0 to 100 scale (0 no effect, 100 complete control)
Method in brief: as §1

[24] = system: ragweed; test: Test C postemergence; assay type: in vivo, Ambrosia artemisiifolia; conditions: 10 days, 0 to 100 scale (0 no effect, 100 complete control)
Method in brief: as §1

[25] = system: ducksalad; test: Test D flooded paddy test; assay type: in vivo, Heteranthera limosa; conditions: 250 g ai/ha, applied to paddy water, visual rating after 13 to 14 days, scale 0 to 100 (0 no effect, 100 complete control)
Method in brief: as §2

[26] = system: soybean; test: Test C postemergence; assay type: in vivo, Glycine max; conditions: 10 days, 0 to 100 scale (0 no effect, 100 complete control)
Method in brief: as §1

[27] = system: blackgrass; test: Test C preemergence; assay type: in vivo, Alopecurus myosuroides
Method in brief: as §1

[28] = system: green foxtail; test: Test C preemergence; assay type: in vivo, Setaria viridis
Method in brief: as §1

[29] = 500 g ai/ha, preemergence, 0 to 100 scale (0 no effect, 100 complete control)
[30] = Preemergence, 125 g ai/ha, 0 to 100 scale, 0 no effect, 100 complete control

For Cc1ncn(-c2ccc(F)c(C(=O)N3C[C@H](C)Oc4c(C)cccc43)c2)n1 [Compound 361], the “Plant response rating, Ryegrass, Italian” value ([1]; 500 g ai/ha, postemergence) was 90, the “Plant response rating, Ryegrass, Italian” value ([1]; Postemergence, 125 g ai/ha) was 80 and the “Wheat plant response rating” value [2, 29] was 70. The “Plant response rating, Wheat” value [2, 30] was 50, the “Soybean plant response rating” value [3, 29] was 100 and the “Plant response rating, Soybean” value [3, 30] was 100. The “Plant response rating, Foxtail, Green” value ([4]; 500 g ai/ha, postemergence) was 90, the “Plant response rating, Foxtail, Green” value ([4]; Postemergence, 125 g ai/ha) was 90 and the “Oat, Wild plant response rating” value [5, 29] was 50. For the same molecule, the “Plant response rating, Oat, Wild” value [5, 30] was 0, the “Plant response rating, Pigweed, Palmer” value ([6]; 500 g ai/ha, postemergence) was 60 and the “Plant response rating, Pigweed, Palmer” value ([6]; Postemergence, 125 g ai/ha) was 20. The “Plant response rating, Sedge, Umbrella (Flood)” value [7] was 95, the “Plant response rating, Oat, Wild” value ([8]; 500 g ai/ha, postemergence) was 80 and the “Plant response rating, Oat, Wild” value ([8]; Postemergence, 125 g ai/ha) was 30. For the same molecule, the “Ryegrass, Italian plant response rating” value [9, 29] was 80, the “Plant response rating, Ryegrass, Italian” value [9, 30] was 80 and the “Plant response rating, Barnyardgrass (Flood)” value [10] was 30. For the same molecule, the “Barnyardgrass plant response rating” value [11, 29] was 90, the “Plant response rating, Barnyardgrass” value [11, 30] was 80 and the “Pigweed, Palmer plant response rating” value [12, 29] was 100. For the same molecule, the “Plant response rating, Pigweed, Palmer” value [12, 30] was 90, the “Plant response rating, Barnyardgrass” value ([13]; 500 g ai/ha, postemergence) was 90 and the “Plant response rating, Barnyardgrass” value ([13]; Postemergence, 125 g ai/ha) was 70. The “Plant response rating, Kochia” value ([14]; 500 g ai/ha, postemergence) was 80, the “Plant response rating, Kochia” value ([14]; Postemergence, 125 g ai/ha) was 70 and the “Ragweed plant response rating” value [15, 29] was 70. The “Plant response rating, Ragweed” value [15, 30] was 50, the “Plant response rating, Galium” value ([16]; 500 g ai/ha, postemergence) was 100 and the “Plant response rating, Galium” value ([16]; Postemergence, 125 g ai/ha) was 100. The “Plant response rating, Horseweed” value ([17]; 500 g ai/ha, postemergence) was 10, the “Plant response rating, Horseweed” value ([17]; Postemergence, 125 g ai/ha) was 0 and the “Kochia plant response rating” value [18, 29] was 90. For the same molecule, the “Plant response rating, Kochia” value [18, 30] was 80, the “Corn plant response rating” value [19, 29] was 10 and the “Plant response rating, Corn” value [19, 30] was 0. The “Plant response rating, Wheat” value ([20]; 500 g ai/ha, postemergence) was 80, the “Plant response rating, Wheat” value ([20]; Postemergence, 125 g ai/ha) was 40 and the “Plant response rating, Rice (Flood)” value [21] was 15. The “Plant response rating, Corn” value ([22]; 500 g ai/ha, postemergence) was 50, the “Plant response rating, Corn” value ([22]; Postemergence, 125 g ai/ha) was 20 and the “Plant response rating, Blackgrass” value ([23]; 500 g ai/ha, postemergence) was 90. For the same molecule, the “Plant response rating, Blackgrass” value ([23]; Postemergence, 125 g ai/ha) was 80, the “Plant response rating, Ragweed” value ([24]; 500 g ai/ha, postemergence) was 60 and the “Plant response rating, Ragweed” value ([24]; Postemergence, 125 g ai/ha) was 60. The “Plant response rating, Ducksalad (Flood)” value [25] was 70, the “Plant response rating, Soybean” value ([26]; 500 g ai/ha, postemergence) was 100 and the “Plant response rating, Soybean” value ([26]; Postemergence, 125 g ai/ha) was 100. For the same molecule, the “Blackgrass plant response rating” value [27, 29] was 60, the “Plant response rating, Blackgrass” value [27, 30] was 40 and the “Foxtail, Green plant response rating” value [28, 29] was 100. The “Plant response rating, Foxtail, Green” value [28, 30] was 100.
